Assay results from PubChem BioAssay AID248 (DTP/NCI, 2004).
“And” between values parts separate entries of the source, which are not always exact repeats. Identical values can stand only once. Toxic doses and inconclusive results are not listed. No stated cut-off is given here; in the data, active means T/C of 150% or more; inactive means T/C below 125%.

Test system: L1210 leukemia ip in BDF1 mice, survival T/C
Experiment: NCI In Vivo Anticancer Drug Screen. Data for tumor model L1210 Leukemia (intraperitoneal) in B6D2F1 (BDF1) mice
Conditions: endpoint: mean survival time, higher = longer survival
Protocol: The antitumor activity of compounds was measured in mice bearing transplantable tumors. Survival or tumor size were measured and the results are expressed as the measurement made in the treated group (T) divided by the measurement made in the vehicle treated control group (C). The tumor model used in this assay is L1210 Leukemia (intraperitoneal) in B6D2F1 (BDF1) mice

[1] = dose: 100.0 mg/kg/injection, schedule: Q01DX001 (ip), vehicle: Klucel (hydroxypropylcellulose) (HPC)
[2] = dose: 100.0 mg/kg/injection, schedule: Q04DX003 (ip), vehicle: Klucel (hydroxypropylcellulose) (HPC)
[3] = dose: 200.0 mg/kg/injection, schedule: Q01DX001 (ip), vehicle: Klucel (hydroxypropylcellulose) (HPC)
[4] = dose: 200.0 mg/kg/injection, schedule: Q04DX003 (ip), vehicle: Klucel (hydroxypropylcellulose) (HPC)
[5] = dose: 400.0 mg/kg/injection, schedule: Q01DX001 (ip), vehicle: Klucel (hydroxypropylcellulose) (HPC)
[6] = dose: 100.0 mg/kg/injection, schedule: Q04DX002 (ip), vehicle: saline with Tween-80
[7] = dose: 200.0 mg/kg/injection, schedule: Q04DX002 (ip), vehicle: saline with Tween-80
[8] = dose: 400.0 mg/kg/injection, schedule: Q04DX002 (ip), vehicle: saline with Tween-80
[9] = dose: 100.0 mg/kg/injection, schedule: Q01DX009 (ip), vehicle: Klucel (hydroxypropylcellulose) (HPC)
[10] = dose: 200.0 mg/kg/injection, schedule: Q01DX009 (ip), vehicle: Klucel (hydroxypropylcellulose) (HPC)
[11] = dose: 400.0 mg/kg/injection, schedule: Q01DX009 (ip), vehicle: Klucel (hydroxypropylcellulose) (HPC)
[12] = dose: 400.0 mg/kg/injection, schedule: Q04DX003 (ip), vehicle: Klucel (hydroxypropylcellulose) (HPC)
[13] = dose: 100.0 mg/kg/injection, schedule: Q04DX003 (ip), vehicle: saline with Tween-80
[14] = dose: 200.0 mg/kg/injection, schedule: Q04DX003 (ip), vehicle: saline with Tween-80
[15] = dose: 100.0 mg/kg/injection, schedule: Q01DX001 (ip), vehicle: saline

Measured: T/C

CC(=O)CC(=O)CC(=O)c1ccccc1
inactive: dose: 50.0 mg/kg/injection, schedule: Q04DX003 (ip), vehicle: Klucel (hydroxypropylcellulose) (HPC) 108 % of control | [1] 97 % of control | [2] 96 % of control | [3] 93 % of control | [4] 105 % of control | [5] 102 % of control

Cc1ccnc(NS(=O)(=O)c2ccc(N)cc2)n1
inactive: [6] 93 % of control | [7] 101 % of control | [8] 93 % of control

Cc1cc(Cl)ccc1OC(=O)Nc1ccccc1F
inactive: [9] 110 % of control | [10] 98 % of control | [11] 121 % of control

CC(C)Sc1ncnc2nc[nH]c12
active: dose: 75.0 mg/kg/injection, schedule: Q01DX009 (sc), vehicle: steriod suspending solution 166 % of control | dose: 150.0 mg/kg/injection, schedule: Q01DX009 (sc), vehicle: steriod suspending solution 160 % of control
inactive: dose: 2.5 mg/kg/injection, schedule: Q01DX009 (sc), vehicle: steriod suspending solution 97 % of control | dose: 5.0 mg/kg/injection, schedule: Q01DX009 (sc), vehicle: steriod suspending solution 100 % of control | dose: 10.0 mg/kg/injection, schedule: Q01DX009 (sc), vehicle: steriod suspending solution 96 % of control | dose: 18.0 mg/kg/injection, schedule: Q01DX009 (ip), vehicle: saline with Tween-80 102 % of control | dose: 27.0 mg/kg/injection, schedule: Q01DX009 (ip), vehicle: saline with Tween-80 104 % of control | dose: 40.0 mg/kg/injection, schedule: Q01DX009 (ip), vehicle: saline with Tween-80 110 % of control | dose: 60.0 mg/kg/injection, schedule: Q01DX009 (ip), vehicle: saline with Tween-80 109 % of control | dose: 75.0 mg/kg/injection, schedule: Q01DX001 (sc), vehicle: steriod suspending solution 103 % of control

CC1CN1S(=O)(=O)N1CC1C (configuration not stated)
inactive: dose: 50.0 mg/kg/injection, schedule: Q01DX001 (ip), vehicle: carboxymethylcellulose (CMC) 111 % of control

Cc1cc(OC(=O)c2ccc(N(C)C)cc2)ccc1[N+](=O)[O-]
inactive: [9] 95 % of control | [2] 96 % of control | [10] 94 % of control | [4] 91 % of control | [11] 97 % of control | [12] 95 % of control

Nc1nc(=S)ss1
inactive: [2] 108 % of control | [4] 105 % of control | [12] 97 % of control

Cc1ccc(C(C)C)cc1NC(=O)/C=C/c1ccccc1
inactive: dose: 6.25 mg/kg/injection, schedule: Q01DX009 (ip), vehicle: saline with Tween-80 97 % of control and 98 % of control | dose: 12.5 mg/kg/injection, schedule: Q01DX009 (ip), vehicle: saline with Tween-80 97 % of control and 98 % of control | dose: 25.0 mg/kg/injection, schedule: Q04DX003 (ip), vehicle: saline with Tween-80 88 % of control | dose: 50.0 mg/kg/injection, schedule: Q01DX001 (ip), vehicle: saline with Tween-80 95 % of control | dose: 50.0 mg/kg/injection, schedule: Q04DX003 (ip), vehicle: saline with Tween-80 88 % of control | dose: 100.0 mg/kg/injection, schedule: Q01DX001 (ip), vehicle: saline with Tween-80 94 % of control | [6] 93 % of control and 96 % of control | [13] 88 % of control | dose: 200.0 mg/kg/injection, schedule: Q01DX001 (ip), vehicle: saline with Tween-80 86 % of control and 87 % of control | [7] 88 % of control and 90 % of control | [14] 89 % of control | dose: 400.0 mg/kg/injection, schedule: Q01DX001 (ip), vehicle: saline with Tween-80 94 % of control and 108 % of control | [8] 96 % of control and 88 % of control

CN(C(=O)/C=C/c1ccc([N+](=O)[O-])cc1)c1ccc(S(=O)(=O)F)cc1
inactive: [9] 91 % of control | [10] 94 % of control | [11] 97 % of control

Nc1cc(S(=O)(=O)F)cc(Cl)c1O
inactive: [9] 105 % of control | [10] 103 % of control

COc1ccc2c(c1)CCC1C2CCC2(C)C1CCC2(C)N(C)C (configuration not stated)
inactive: dose: 50.0 mg/kg/injection, schedule: Q01DX001 (sc), vehicle: steriod suspending solution 104 % of control

C=C(C)Cc1c(C)c(Cl)cc(Cl)c1O
inactive: dose: 50.0 mg/kg/injection, schedule: Q01DX001 (ip), vehicle: saline 103 % of control | [15] 103 % of control

NC1CCc2ccccc2-c2ccccc21 (configuration not stated)
inactive: dose: 10.0 mg/kg/injection, schedule: Q01DX001 (ip), vehicle: saline 101 % of control | dose: 20.0 mg/kg/injection, schedule: Q01DX001 (ip), vehicle: saline 108 % of control | dose: 40.0 mg/kg/injection, schedule: Q01DX001 (ip), vehicle: saline 101 % of control

COc1ccccc1-n1c(=O)c(N=Nc2ccccc2C)c(O)n(-c2ccccc2C)c1=S
inactive: dose: 37.5 mg/kg/injection, schedule: Q01DX001 (ip), vehicle: Klucel (hydroxypropylcellulose) (HPC) 106 % of control | dose: 75.0 mg/kg/injection, schedule: Q01DX001 (ip), vehicle: Klucel (hydroxypropylcellulose) (HPC) 106 % of control | dose: 150.0 mg/kg/injection, schedule: Q01DX001 (ip), vehicle: Klucel (hydroxypropylcellulose) (HPC) 108 % of control

CN(C)S(=O)(=O)c1ccc(C=C(c2ccccc2)c2ccccc2)cc1
inactive: [2] 95 % of control | [4] 94 % of control | [12] 91 % of control

CNc1cccc2c1C(=O)c1ccccc1C2=O
inactive: dose: 100.0 mg/kg/injection, schedule: Q04DX002 (ip), vehicle: Klucel (hydroxypropylcellulose) (HPC) 96 % of control | dose: 200.0 mg/kg/injection, schedule: Q04DX002 (ip), vehicle: Klucel (hydroxypropylcellulose) (HPC) 92 % of control | dose: 400.0 mg/kg/injection, schedule: Q04DX002 (ip), vehicle: Klucel (hydroxypropylcellulose) (HPC) 96 % of control

CCCCCCCCCCCCCCCCCC(=O)OCCCCCCCCCCCCC
inactive: dose: 100.0 mg/kg/injection, schedule: Q01DX009 (ip), vehicle: saline sonified 88 % of control | [13] 100 % of control | dose: 200.0 mg/kg/injection, schedule: Q01DX009 (ip), vehicle: saline sonified 95 % of control | [14] 92 % of control | dose: 400.0 mg/kg/injection, schedule: Q01DX009 (ip), vehicle: saline sonified 91 % of control | dose: 400.0 mg/kg/injection, schedule: Q04DX003 (ip), vehicle: saline with Tween-80 86 % of control

Cc1cc2nc(Cc3nc4cc(C)c(C)cc4[nH]3)[nH]c2cc1C
inactive: dose: 50.0 mg/kg/injection, schedule: Q01DX Z (ip), vehicle: saline 105 % of control | [15] 92 % of control | dose: 100.0 mg/kg/injection, schedule: Q01DX Z (ip), vehicle: saline 95 % of control | dose: 100.0 mg/kg/injection, schedule: Q04DX003 (ip), vehicle: saline 100 % of control | dose: 200.0 mg/kg/injection, schedule: Q01DX001 (ip), vehicle: saline 93 % of control | dose: 200.0 mg/kg/injection, schedule: Q01DX Z (ip), vehicle: saline 100 % of control | dose: 200.0 mg/kg/injection, schedule: Q04DX003 (ip), vehicle: saline 92 % of control | dose: 400.0 mg/kg/injection, schedule: Q01DX001 (ip), vehicle: saline 90 % of control | dose: 400.0 mg/kg/injection, schedule: Q01DX Z (ip), vehicle: saline 97 % of control | dose: 400.0 mg/kg/injection, schedule: Q04DX003 (ip), vehicle: saline 86 % of control

[N-]=[N+]=C1C(=O)NC(=O)NC1C(=O)O (configuration not stated)
inactive: dose: 75.0 mg/kg/injection, schedule: Q01DX009 (ip), vehicle: Klucel (hydroxypropylcellulose) (HPC) 103 % of control | [1] 96 % of control | dose: 150.0 mg/kg/injection, schedule: Q01DX009 (ip), vehicle: Klucel (hydroxypropylcellulose) (HPC) 119 % of control | [3] 100 % of control | dose: 300.0 mg/kg/injection, schedule: Q01DX009 (ip), vehicle: Klucel (hydroxypropylcellulose) (HPC) 107 % of control | [5] 86 % of control
